Measurements reported in PubChem BioAssay (NCI).
Where “and” joins values, the source holds several entries; their conditions need not be identical. Identical values can stand only once.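 Exposure lasted 48 hours, with cells grown in 96-well plates and compounds tested at five concentrations. At the GI50, growth is halved. TGI: concentration producing complete growth inhibition.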

Assays:
Assay in all cases: DTP human tumour cell line panel, 48 h
SK-MEL-28 melanoma = test system: SK-MEL-28 melanoma
HCT-116 colon = test system: HCT-116 colon
UACC-257 melanoma = test system: UACC-257 melanoma
MALME-3M melanoma = test system: MALME-3M melanoma
SK-MEL-2 melanoma = test system: SK-MEL-2 melanoma
MDA-MB-231 breast = test system: MDA-MB-231 breast
MDA-MB-435 = test system: MDA-MB-435
M14 melanoma = test system: M14 melanoma
SNB-78 CNS = test system: SNB-78 CNS
M19-MEL melanoma = test system: M19-MEL melanoma

Row | SMILES | GI50 (SK-MEL-28 melanoma) | TGI (SK-MEL-28 melanoma) [µM] | GI50 (HCT-116 colon) | TGI (HCT-116 colon) | GI50 (UACC-257 melanoma) | TGI (UACC-257 melanoma) | GI50 (MALME-3M melanoma) [µM] | TGI (MALME-3M melanoma) [µM] | GI50 (SK-MEL-2 melanoma) | TGI (SK-MEL-2 melanoma) | GI50 (MDA-MB-231 breast) | TGI (MDA-MB-231 breast) | GI50 (MDA-MB-435) | TGI (MDA-MB-435) [µM] | GI50 (M14 melanoma) | TGI (M14 melanoma) [µM] | TGI (SNB-78 CNS) [µM] | TGI (M19-MEL melanoma) [µM]
1 | OCCCCC#Cc1ccccc1C#Cc1cccc(O)c1 | 14.2 µM | 28.2 | 15.5 µM | 30 µM | 18.1 µM | 33.1 µM | 18.9 | 40.8 | 18.6 µM | 38.8 µM | 12.8 µM | 26.7 µM | 16.1 µM | 32.8 | 17.4 µM | 35.1 | – | –
2 | Nc1ccncc1/C=C1/C(=O)Nc2ccccc21 | 28.9 µM | > 100 | 43.9 µM | > 100 µM | > 100 µM | > 100 µM | 20.6 | 80.9 | 19.4 µM | 87.3 µM | 50.1 µM | > 100 µM | 14.4 µM | 35.4 | 20.5 µM | 59.6 | – | –
3 | COc1ccccc1NC(=O)C1=C(C)NC(C)=C(C(=O)Nc2ccccc2OC)C1c1ccc([N+](=O)[O-])cc1 | – | > 100 | – | > 100 µM | – | > 100 µM | – | > 100 | – | > 100 µM | – | – | – | – | – | > 100 | > 100 | –
4 | CCOC(=O)CCc1c(C)c2c(OC(C)=O)cc(OC(C)=O)cc2oc1=O | – | > 100 | – | > 100 µM | – | > 100 µM | – | 55.5 | – | 82.2 µM | – | – | – | – | – | > 100 | > 100 | > 100
5 | CN(C)c1ccc2nc3ccc(=O)cc-3sc2c1 | 4.6 µM | 27.1 | 1.16 µM | 8.47 µM | 0.38 µM | 3.29 µM | 0.333 | 4.18 | 3.51 µM | 25.8 µM | 1.14 µM | > 45.4 µM | 0.31 µM | 0.985 | 0.408 µM | 10.8 | – | –
6 | CN1CCc2c(Sc3ccc(C(=O)NO)cc3)c3ccccc3n2C1 | 1.58 µM | 3.98 | 1.7 µM | 3.97 µM | 1.75 µM | 9.1 µM | 1.12 | 4.33 | 2.01 µM | 4.55 µM | 1.75 µM | 4.19 µM | 1.61 µM | 3.34 | 1.81 µM | 4.53 | – | –
7 | CC(=O)Oc1ccc(Nc2c3ccccc3nc3ccccc23)cc1 | 1.58 µM | 3.92 | 0.613 µM | 4.11 µM | 1.51 µM | 4.31 µM | 1.31 | 5.35 | 1.8 µM | 3.79 µM | 1.7 µM | 6.23 µM | 2.17 µM | 8.16 | 1.46 µM | 3.7 | – | –
8 | O=C(Nc1cccc(Cl)c1)c1cc2ccccc2cc1O | 2.69 µM and 0.554 µM | > 100 | 1.68 µM and 0.828 µM | > 100 µM and 21.1 µM | 1.03 µM and 2.26 µM | 7.31 µM and 6.11 µM | 0.71 | 21.9 | 0.415 µM and 2.94 µM | 4.63 µM and 40.8 µM | 4.65 µM and 2.37 µM | > 100 µM and 15.4 µM | 2.38 µM and 2.02 µM | > 100 | 3.67 µM and 2.24 µM | > 100 | – | –
9 | CCOC(=O)C1=C(C)N(N)C(=S)NC1c1ccc(C)cc1 (stereo not given) | 6.99 µM | > 100 | 65.3 µM | > 100 µM | 36.2 µM | > 100 µM | 14.4 | > 100 | 21.4 µM | > 100 µM | 1.2 µM | > 100 µM | 14.8 µM | 72.2 | 27.5 µM | > 100 | – | –
10 | O=C(O)c1c(-c2nccc3ccccc23)[nH]c(-c2ccccc2)c1S(=O)(=O)O | – | > 100 | – | > 100 µM | – | > 100 µM | – | > 100 | – | > 100 µM | – | > 100 µM | – | > 100 | – | > 100 | – | –
11 | O=C(O)c1ccccc1-c1ccccc1C(=O)Nc1ccc2c(c1)Cc1cc(F)ccc1-2 | – | > 100 | – | 33 µM | – | 52.2 µM | – | 88.7 | – | 37.9 µM | – | 83.2 µM | – | > 100 | – | 40 | – | –
12 | O=C(CCCN1CC=C(n2c(=O)[nH]c3ccccc32)CC1)c1ccc(F)cc1 | 52.6 µM | > 100 | 28.5 µM | > 100 µM | 60.2 µM | > 100 µM | 38.9 | > 100 | 19.5 µM | 70.9 µM | 62.8 µM | > 100 µM | 18.1 µM | 49.5 | 23 µM | 65.5 | – | –
13 | O=C1/C(=C\c2cccn2Cc2ccccc2)c2ccccc2N1c1c(Cl)cccc1Cl | > 100 µM | > 100 | 7.36 µM | > 100 µM | > 100 µM | > 100 µM | 3.22 | > 100 | 2.4 µM | > 30.1 µM | 5.83 µM | > 100 µM | > 100 µM | > 100 | > 100 µM | > 100 | – | –
14 | COc1cc2c(cc1OC)C13CCN4CC5=CCOC6CC(=O)N2C1C6C5CC43O (stereo not given) | – | > 100 | – | > 100 µM | – | > 100 µM | – | > 100 | – | > 100 µM | – | > 100 µM | – | > 100 | – | > 100 | – | –
15 | CCN(CC)CCNCC(=O)Oc1ccc(/C=C/C(=O)CC(=O)/C=C/c2ccc(OC(=O)CNCCN(CC)CC)c(OC)c2)cc1OC | 4.16 µM | 46.2 | 2.81 µM | 12.3 µM | 3.58 µM | 16.9 µM | 2.57 | 7.65 | 3.39 µM | 12.7 µM | 4.94 µM | 29.3 µM | 2.48 µM | 12.4 | 2.82 µM | 11 | – | –
16 | Fc1ccc(Nc2cc(-n3nnc4ccccc43)nc3ccccc23)cc1 | > 56.2 µM | > 100 | 36.4 µM | > 100 µM | 70.1 µM | > 100 µM | 23.1 | > 70.6 | 98.8 µM | > 100 µM | 8.44 µM | > 49.2 µM | > 50.7 µM | > 100 | > 81.7 µM | > 100 | – | –
